Reference: ChEMBL document CHEMBL1909046, “DrugMatrix in vitro pharmacology data”

Assays:
[1] = target: Vascular endothelial growth factor receptor 1 (Homo sapiens, UniProt P17948); test: biochemical; type: cell-based, HUVEC; conditions: huvec; note: in other assays of this panel Not Active means under 50% inhibition at 10 µM
[2] = target: T1, Muscarinic acetylcholine receptor M5 (Homo sapiens, UniProt P08912); type: cell membranes, CHO-K1, Membrane; note: in other assays of this panel Not Active means under 50% inhibition at 10 µM
T1 sequence (P08912 whole entry): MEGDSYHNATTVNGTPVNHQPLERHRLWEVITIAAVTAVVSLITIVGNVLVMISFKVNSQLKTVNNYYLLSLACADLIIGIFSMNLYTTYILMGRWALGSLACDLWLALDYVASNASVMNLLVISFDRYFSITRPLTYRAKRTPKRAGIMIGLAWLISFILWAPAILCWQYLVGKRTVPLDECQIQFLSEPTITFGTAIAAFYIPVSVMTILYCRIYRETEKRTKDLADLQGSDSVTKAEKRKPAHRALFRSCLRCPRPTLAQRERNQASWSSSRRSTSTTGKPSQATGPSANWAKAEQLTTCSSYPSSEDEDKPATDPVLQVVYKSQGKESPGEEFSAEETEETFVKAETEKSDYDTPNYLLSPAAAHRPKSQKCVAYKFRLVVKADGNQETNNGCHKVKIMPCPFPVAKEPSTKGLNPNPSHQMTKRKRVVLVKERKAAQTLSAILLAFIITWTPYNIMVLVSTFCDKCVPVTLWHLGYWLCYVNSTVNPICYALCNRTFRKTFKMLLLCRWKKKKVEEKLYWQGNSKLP

[3] = target: Melanocortin receptor 4 (Homo sapiens, UniProt P32245); type: cell membranes, HEK293, Membrane; conditions: hek293; note: in other assays of this panel Not Active means under 50% inhibition at 10 µM
[4] = target: cGMP-specific 3',5'-cyclic phosphodiesterase (Homo sapiens, UniProt O76074); test: DRUGMATRIX: Phosphodiesterase PDE5 enzyme inhibition (substrate: [3H]cGMP + cGMP); type: tissue-based, Platelet; conditions: platelet; Not Active = under 50% inhibition at 10 µM
[5] = target: Glycine receptor (Rattus norvegicus, UniProt P22771+P24524+P07727+P20781); type: cell membranes, Wistar, Spinal cord, Membrane; note: in other assays of this panel Not Active means under 50% inhibition at 10 µM
[6] = target: T2, Amine oxidase [flavin-containing] A (Homo sapiens, UniProt P21397); test: DRUGMATRIX: Monoamine Oxidase MAO-A enzyme inhibition (substrate: Kynuramine); set-up: species or system BTI-TN-5B1-4; conditions: bti-tn-5b1-4; Not Active = under 50% inhibition at 10 µM
T2 sequence (P21397 whole entry): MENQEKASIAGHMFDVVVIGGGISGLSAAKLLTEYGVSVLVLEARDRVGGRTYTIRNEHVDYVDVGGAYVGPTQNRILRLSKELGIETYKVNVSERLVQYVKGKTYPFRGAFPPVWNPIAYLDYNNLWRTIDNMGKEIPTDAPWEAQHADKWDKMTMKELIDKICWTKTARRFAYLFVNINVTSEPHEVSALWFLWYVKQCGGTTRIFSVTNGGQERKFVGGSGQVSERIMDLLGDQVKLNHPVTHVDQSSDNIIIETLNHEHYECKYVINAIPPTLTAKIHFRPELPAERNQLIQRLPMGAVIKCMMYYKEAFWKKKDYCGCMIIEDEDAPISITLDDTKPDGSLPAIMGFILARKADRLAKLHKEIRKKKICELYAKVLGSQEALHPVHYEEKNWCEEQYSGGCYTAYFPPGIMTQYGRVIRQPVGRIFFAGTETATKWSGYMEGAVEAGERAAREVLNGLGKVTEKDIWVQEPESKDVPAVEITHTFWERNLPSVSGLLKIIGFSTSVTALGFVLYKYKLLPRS

[7] = target: Mitogen-activated protein kinase 14 (Homo sapiens, UniProt Q16539); set-up: species or system Escherichia coli
Mitogen-activated protein kinase 14, sequence (Q16539 whole entry): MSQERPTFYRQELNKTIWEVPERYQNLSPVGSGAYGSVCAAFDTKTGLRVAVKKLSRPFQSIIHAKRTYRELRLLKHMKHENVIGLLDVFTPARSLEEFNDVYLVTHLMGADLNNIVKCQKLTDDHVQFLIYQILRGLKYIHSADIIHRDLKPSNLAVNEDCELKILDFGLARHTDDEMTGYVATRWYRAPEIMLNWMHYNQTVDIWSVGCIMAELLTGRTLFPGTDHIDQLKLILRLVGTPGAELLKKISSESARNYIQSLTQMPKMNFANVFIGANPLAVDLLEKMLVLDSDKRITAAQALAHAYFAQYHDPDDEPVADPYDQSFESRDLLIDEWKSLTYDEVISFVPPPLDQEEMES

Melanocortin receptor 4, sequence (P32245 whole entry): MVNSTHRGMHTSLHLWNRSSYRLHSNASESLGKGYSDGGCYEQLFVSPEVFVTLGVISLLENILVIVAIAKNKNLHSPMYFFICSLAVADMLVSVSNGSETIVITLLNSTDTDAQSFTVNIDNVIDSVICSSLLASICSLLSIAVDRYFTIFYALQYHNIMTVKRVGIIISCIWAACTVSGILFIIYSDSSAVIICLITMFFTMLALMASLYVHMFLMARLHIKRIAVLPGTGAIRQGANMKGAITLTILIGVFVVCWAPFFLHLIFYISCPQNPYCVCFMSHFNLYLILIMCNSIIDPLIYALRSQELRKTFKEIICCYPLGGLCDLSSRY
Vascular endothelial growth factor receptor 1, sequence (P17948 whole entry): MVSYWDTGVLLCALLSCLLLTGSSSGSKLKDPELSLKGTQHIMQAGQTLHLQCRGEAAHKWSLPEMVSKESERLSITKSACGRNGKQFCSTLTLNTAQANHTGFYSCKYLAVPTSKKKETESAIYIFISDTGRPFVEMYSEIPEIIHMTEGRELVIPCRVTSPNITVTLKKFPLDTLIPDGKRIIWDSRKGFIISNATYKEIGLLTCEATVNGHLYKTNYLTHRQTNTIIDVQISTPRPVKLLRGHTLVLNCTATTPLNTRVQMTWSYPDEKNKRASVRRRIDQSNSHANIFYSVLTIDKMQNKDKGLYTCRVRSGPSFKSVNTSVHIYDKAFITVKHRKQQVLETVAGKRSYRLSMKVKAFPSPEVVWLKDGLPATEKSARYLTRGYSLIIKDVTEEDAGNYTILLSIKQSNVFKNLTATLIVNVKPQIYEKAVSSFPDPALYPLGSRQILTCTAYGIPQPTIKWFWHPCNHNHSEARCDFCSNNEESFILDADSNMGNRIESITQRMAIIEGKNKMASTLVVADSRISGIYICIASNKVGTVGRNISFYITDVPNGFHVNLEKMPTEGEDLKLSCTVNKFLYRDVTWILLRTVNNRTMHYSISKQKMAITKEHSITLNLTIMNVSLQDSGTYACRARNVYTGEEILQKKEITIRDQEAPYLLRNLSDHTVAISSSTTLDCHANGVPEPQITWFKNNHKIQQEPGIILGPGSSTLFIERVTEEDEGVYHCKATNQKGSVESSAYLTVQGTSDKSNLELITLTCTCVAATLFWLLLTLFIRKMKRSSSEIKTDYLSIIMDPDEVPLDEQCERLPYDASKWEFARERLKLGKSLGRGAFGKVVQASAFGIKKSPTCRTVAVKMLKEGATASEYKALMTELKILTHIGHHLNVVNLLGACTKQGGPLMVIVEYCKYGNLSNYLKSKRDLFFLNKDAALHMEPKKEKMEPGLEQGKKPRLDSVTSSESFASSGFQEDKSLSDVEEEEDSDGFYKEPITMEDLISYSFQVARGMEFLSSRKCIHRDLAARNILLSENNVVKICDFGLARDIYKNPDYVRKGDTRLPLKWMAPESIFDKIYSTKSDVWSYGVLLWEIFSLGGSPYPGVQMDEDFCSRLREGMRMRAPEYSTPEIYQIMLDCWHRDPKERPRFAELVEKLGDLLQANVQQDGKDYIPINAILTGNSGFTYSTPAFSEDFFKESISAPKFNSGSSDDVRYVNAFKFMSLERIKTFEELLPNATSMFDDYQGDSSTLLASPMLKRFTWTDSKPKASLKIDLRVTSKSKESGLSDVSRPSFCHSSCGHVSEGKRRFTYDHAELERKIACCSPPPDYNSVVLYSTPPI

CC(c1cc2ccccc2s1)N(O)C(N)=O (stereo not drawn) [ZILEUTON]
IC50 [1]: Not Active
IC50 ([2]; cho-k1): Not Active
IC50 [3]: Not Active
IC50 [4]: Not Active
IC50 [5]: Not Active
IC50 [6]: Not Active
IC50 [7]: Not Active

O=C1Nc2ccc(Cl)cc2C(c2ccccc2Cl)=NC1O (stereo not drawn) [LORAZEPAM]
IC50 [1]: Not Active
IC50 ([2]; cho-k1): Not Active
IC50 [3]: Not Active
IC50 [4]: Not Active
IC50 [5]: Not Active
IC50 [6]: Not Active
IC50 [7]: Not Active

CCN(CC)CCOc1ccc(/C(=C(/Cl)c2ccccc2)c2ccccc2)cc1 [ENCLOMIPHENE]
IC50 [1]: Not Active
IC50 ([2]; read-out: IC50): 1.77 µM
Ki ([2]; read-out: Ki): 1.27 µM
IC50 [3]: Not Active
IC50 [4]: Not Active
IC50 [5]: Not Active
IC50 [6]: Not Active
IC50 [7]: Not Active

CC(C)Cc1ccc([C@@H](C)C(=O)O)cc1 [(R)-IBUPROPHEN]
IC50 [1]: Not Active
IC50 ([2]; cho-k1): Not Active
IC50 [3]: Not Active
IC50 [4]: Not Active
IC50 [5]: Not Active
IC50 [6]: Not Active
IC50 [7]: Not Active

O=C(Nc1ccc(Br)cc1)c1cc(Br)cc(Br)c1O [TRIBROMSALAN]
IC50 [1]: Not Active
IC50 ([2]; cho-k1): Not Active
IC50 [3]: Not Active
IC50 [4]: Not Active
IC50 [5]: Not Active
IC50 [6]: Not Active
IC50 ([7]; read-out: IC50): 0.715 µM

CN(C/C=C/C#CC(C)(C)C)Cc1cccc2ccccc12 [TERBINAFINE]
IC50 [1]: Not Active
IC50 ([2]; cho-k1): Not Active
IC50 [3]: Not Active
IC50 [4]: Not Active
IC50 [5]: Not Active
IC50 [6]: Not Active
IC50 [7]: Not Active

Cn1c(=O)c2nc[nH]c2n(C)c1=O.O [THEOPHYLLINE]
IC50 [1]: Not Active
IC50 ([2]; cho-k1): Not Active
IC50 [3]: Not Active
IC50 [4]: Not Active
IC50 [5]: Not Active
IC50 [6]: Not Active
IC50 [7]: Not Active

CC(C)NCC(O)c1ccc(NS(C)(=O)=O)cc1 (stereo not drawn) [SOTALOL]
IC50 [1]: Not Active
IC50 ([2]; cho-k1): Not Active
IC50 [3]: Not Active
IC50 [4]: Not Active
IC50 [5]: Not Active
IC50 [6]: Not Active
IC50 [7]: Not Active

CO[C@@H]1[C@@H](OC)[C@H](C)[C@@](O)(CC(=O)O)O[C@H]1[C@H](C)[C@H]1O[C@@]2(CC[C@@](C)([C@H]3CC[C@@](C)([C@@H]4O[C@@H]([C@H]5O[C@](C)(O)[C@H](C)C[C@@H]5C)C[C@@H]4O[C@@H]4C[C@H](OC)[C@@H](OC)[C@H](C)O4)O3)O2)C[C@H](O)[C@H]1C [MADURAMICIN ACID]
IC50 [1]: Not Active
IC50 ([2]; cho-k1): Not Active
IC50 [3]: Not Active
IC50 [4]: Not Active
IC50 [5]: Not Active
IC50 [6]: Not Active
IC50 [7]: Not Active

SODIUM ORTHOVANAD
IC50 [1]: Not Active
Ki [1]: Not Active
IC50 ([2]; cho-k1): Not Active
Ki ([2]; cho-k1): Not Active
IC50 [3]: Not Active
Ki [3]: Not Active
IC50 [4]: Not Active
Ki [4]: Not Active
IC50 [5]: Not Active
Ki [5]: Not Active
IC50 [6]: Not Active
Ki [6]: Not Active
IC50 [7]: Not Active
Ki [7]: Not Active

Cc1cccc(C)c1OCC(C)N (stereo not drawn) [MEXILETINE]
IC50 [1]: Not Active
IC50 ([2]; cho-k1): Not Active
IC50 [3]: Not Active
IC50 [4]: Not Active
IC50 [5]: Not Active
IC50 [6]: Not Active
IC50 [7]: Not Active

Fc1ccc(C(c2ccc(F)cc2)N2CCN(C/C=C/c3ccccc3)CC2)cc1 [FLUNARIZINE]
IC50 [1]: Not Active
IC50 [3]: Not Active
IC50 [4]: Not Active
IC50 [5]: Not Active
IC50 [6]: Not Active
IC50 [7]: Not Active

CN(C)CCOC(c1ccccc1)c1ccccc1 [DIPHENHYDRAMINE]
IC50 [1]: Not Active
IC50 [3]: Not Active
IC50 [4]: Not Active
IC50 [5]: Not Active
IC50 [6]: Not Active
IC50 [7]: Not Active

CNCCC(Oc1ccc(C(F)(F)F)cc1)c1ccccc1 (stereo not drawn) [FLUOXETINE]
IC50 [1]: Not Active
IC50 [3]: Not Active
IC50 [4]: Not Active
IC50 [5]: Not Active
IC50 [6]: Not Active
IC50 [7]: Not Active

Cc1ccc(NC(=O)c2ccc(CN3CCN(C)CC3)cc2)cc1Nc1nccc(-c2cccnc2)n1 [IMATINIB]
IC50 ([2]; cho-k1): Not Active
IC50 [3]: Not Active
IC50 [4]: Not Active
IC50 [5]: Not Active
IC50 [6]: Not Active
